Reference: patent publication US7122549B2, “Saframycins, analogues and uses thereof” (President and Fellows of Harvard College, priority 2000, dated 2006)
Read-outs that look alike come from different tables or passages of the source.

Columns and labels:
[1] = test system: A375 malignant melanoma; assay: Cell Growth Inhibition Assay (MTS, CellTiter 96 AQueous); assay type: cell-based
Protocol: (§1) The two cell lines used, A375 malignant melanoma and A-549 lung carcinoma, were purchased from American Type Culture Collection. These cells were cultured at 37° C. in a humidified atmosphere of 5% CO2 in Dulbecco's Modified Eagle Medium (DMEM) supplemented with 10% fetal bovine serum (FBS), 0.1% glutamine and 0.1% penicillin-streptomycin. DMEM, FBS, glutamine and penicillin-streptomycin were purchased from Life Technologies (Grand Island, N.Y.).
(§2) Exponentially growing cells were seeded at ˜3000 (50 μl) cells per well in 96-well flat-bottomed microtiter plates and then incubated at 37° C. in a humidified atmosphere of 5% CO2/95% air for 24 hr. An analogue was dissolved in dimethyl sulfoxide to give a concentration of 0.6 mg/ml, which was further diluted with the culture medium containing 10% fetal bovine serum. Nine three-fold dilutions were prepared with the maximum concentration being 1/300 of the original DMSO solution (i.e. 2000 ng/ml). This procedure was repeated for each analogue. Fifty microliters of the obtained dilutions were each transferred into the well of the above described culture plate. The cell culture was then placed back into the incubator at 37° C. under the 5% CO2 atmosphere for 72 hr. Cell proliferation was quantified by using the CellTiter 96 AQueous Assay (Promega). In this assay a mixture solution (20 μl) of MTS [Owen's reagent: 3-(4,5-dimethylthiazol-2-yl)-5-(3-carbomethoxyphenyl)-2-(4-sulfophenyl)-2H-tetrazolium inner salt] and phenazine methosulfate (PMS) was added to each well. The resulting mixtures were further incubated for 2.5 hr. The absorbance was measured with a microplate reader at a test wavelength of 540 nm and a reference wavelength of 655 nm to serve as an index of the number of viable cells. The inhibitory ratio of the test compound was calculated according to the following formula: inhibition ratio (%)=100×(C−T)/C, where T is an absorbance of the well containing a test compound and C is an absorbance of the well containing no test compound. The IC50 was calculated by the least squares method.

[2] = test system: A-549 lung carcinoma; assay: as above; assay type: cell-based
Protocol: as §1, §2

[3] = Homo sapiens, A-375, Table 1, A375 cells, 72 hr with compound, MTS readout, read-out: IC50, nM A375
[4] = Homo sapiens, Table 1, A549 cells, 72 hr with compound, MTS readout, read-out: IC50, nM A549
[5] = Homo sapiens, A-375, 72 h, read-out: IC50, nM A375
[6] = Homo sapiens, A549, 72 h, read-out: IC50, nM A549
[7] = Homo sapiens, A-375, Table 2, A375 cells, 72 hr with compound, MTS readout, read-out: IC50 (nM) Cell line A375-Melanoma
[8] = Homo sapiens, Table 2, A549 cells, 72 hr with compound, MTS readout, read-out: IC50 (nM) Cell line A549-Lung
[9] = Homo sapiens, A-375, Table 3, A375 cells, 72 hr with compound, MTS readout, read-out: IC50 (nM) Cell line A375-Melanoma
[10] = Homo sapiens, Table 3, A549 cells, 72 hr with compound, MTS readout, read-out: IC50 (nM) Cell line A549-Lung

| SMILES | IC50 [1, 3] [nM] | IC50 [2, 4] [nM] | further results |
| --- | --- | --- | --- |
| CC(=O)C(N)=O | 4.5 | 160 |  |
| NCc1ccccc1 | 330 | 1100 |  |
| NCc1ccccn1 | 260 | 700 |  |
| NC(=O)c1ccco1 | 13 | 290 |  |
| NC(=O)Cc1ccccc1 |  |  | IC50 [1, 5]: 34 nM; IC50 [2, 6]: 1200 nM |
| NC(=O)C(=O)Cc1ccccc1 | 2.4 | 39 |  |
| NC(=O)OCc1ccccc1 |  |  | IC50 [1, 5]: 3.9 nM; IC50 [2, 6]: 50 nM |
| COc1ccc(OC(N)=O)cc1 |  |  | IC50 [1, 5]: 3.4 nM; IC50 [2, 6]: 96 nM |
| NC(=O)Nc1ccccc1 | 37 | 890 |  |
| Cc1ccc(S(N)(=O)=O)cc1 | 81 | 860 |  |
| NC(=O)c1ncccc1O | 1.2 | 11.3 |  |
| Cc1ccc(C(N)=O)c(O)c1 | 1.2 | 6.5 |  |
| COc1cccc(C(N)=O)c1 | 4.1 | 99 |  |
| NC(=O)c1c(F)cccc1F | 12 | 395 |  |
| COc1cc(C(N)=O)cc(OC)c1OC | 14 | 390 |  |
| NC(=O)c1c(F)c(F)c(F)c(F)c1F | 8.5 | 100 |  |
| NC(=O)c1ccccn1 | 3.3 | 40 |  |
| NC(=O)c1cnccn1 | 4.4 | 100 |  |
| NC(=O)c1cc2ccccc2[nH]1 | 2.7 | 31 |  |
| NC(=O)c1c[nH]c2ccccc12 | 76 | 1200 |  |
| NC(=O)c1cccc2[nH]ccc12 | 85 | 1100 |  |
| NC(=O)c1cc2cc(F)ccc2[nH]1 | 2.5 | 26 |  |
| NC(=O)C(=O)c1c[nH]c2ccccc12 |  |  | IC50 [1, 5]: 9.6 nM; IC50 [2, 6]: 110 nM |
| NC(=O)[C@H](Cc1c[nH]c2ccccc12)NC(=O)OCc1ccccc1 | 96 | 1100 |  |
| NC(=O)[C@@H](N)Cc1c[nH]c2ccccc12 | 310 | > 1400 |  |
| O=C1NC(=O)c2ccccc21 | 1.7 | 9.2 |  |

| SMILES | IC50 [1, 3] [nM] | IC50 [2, 4] [nM] | further results |
| --- | --- | --- | --- |
| O=C1NC(=O)c2ncccc21 | > 510 | > 510 |  |
| NC(=O)/C=C/c1ccccc1 | 2.9 | 44 |  |
| NC(=O)c1cccc2ccccc12 | 43 | 390 |  |
| NC(=O)c1nccc2ccccc12 | 2.5 | 32 |  |
| NC(=O)c1c(O)ccc2ccccc12 | 23 | 320 |  |
| NC(=O)c1ncc(Br)c2ccccc12 | 9.2 | 25 |  |
| Cc1ccc2ccc(C(N)=O)nc2c1 | 1.4 | 4.6 |  |
| NC(=O)c1cc(O)c2ccc(Cl)cc2n1 | 7.5 | 42 |  |
| NC(=O)c1cc(O)c2cc(Cl)ccc2n1 | 13 | 74 |  |
| NC(=O)c1cnc2ccccc2n1 | 1.2 | 4.7 |  |
| NC(=O)[C@@H]1Cc2ccccc2CN1 | 8.3 | 200 |  |
| NC(=O)C1NCCc2ccccc21 (stereo not shown) | 3440 |  |  |
| COc1c(C)c(OC)c2c(c1O)[C@@H]1[C@@H]3Cc4c(OC)c(C)c(OC)c(O)c4[C@H](CNC(=O)OCC4c5ccccc5-c5ccccc54)N3[C@@H](C#N)C(C2)N1C |  |  | IC50 [1, 7]: 35 nM; IC50 [2, 8]: 176 nM |
| CCCCC[C@H]1c2c(O)c(OC)c(C)c(OC)c2C[C@H]2[C@H]3c4c(O)c(OC)c(C)c(OC)c4C[C@@H]([C@H](C#N)N12)N3C |  |  | IC50 [1, 7]: 116 nM; IC50 [2, 8]: 1400 nM |
| COc1c(C)c(OC)c2c(c1O)[C@@H]1[C@@H]3Cc4c(OC)c(C)c(OC)c(O)c4[C@H](CNC(=O)c4ccc5cc(OCCCCN)ccc5n4)N3[C@@H](C#N)[C@H](C2)N1C |  |  | IC50 [1, 7]: 29 nM; IC50 [2, 8]: 118 nM |
| COc1c(C)c(OC)c2c(c1O)[C@@H]1[C@@H]3Cc4c(OC)c(C)c(OC)c(O)c4[C@H](CNC(=O)c4ccc5cc(OCCCCNC(=O)CCCCCNC(=O)CCCCCNC(=O)CCCC[C@@H]6SC[C@@H]7NC(=O)N[C@@H]76)ccc5n4)N3[C@@H](C#N)[C@H](C2)N1C [Biotinylated derivative, Biotinylated Quinalascidin Analog 1] |  |  | IC50 ([1]; Homo sapiens, A-375, 72 h, read-out: IC50 (nM) Cell line A375-Melanoma): 210 nM; IC50 ([2]; Homo sapiens, A549, 72 h, read-out: IC50 (nM) Cell line A549-Lung): 990 nM |
| COc1c(C)c(OC)c2c(c1O)[C@@H]1[C@@H]3Cc4c(OC)c(C)c(OC)c(O)c4[C@H](CN(Cc4ccccn4)Cc4ccccn4)N3[C@@H](C#N)[C@H](C2)N1C [N-(Pyr)2, bis-2-Pyridyl Derivative] | > 1400 | > 1400 |  |
| COC1=C(C)C(=O)C2=C(C1=O)[C@@H]1[C@@H]3CC4=C(C(=O)C(OC)=C(C)C4=O)[C@H](CNC(=O)C(C)=O)N3[C@@H](C#N)[C@H](C2)N1C [Saframycin A, (−)-Saframycin A, reference compound] |  |  | IC50 ([1]; Table 1, A375 cells, 72 hr with compound, MTS readout, read-out: IC50, nM A375): 5.3 nM; IC50 ([2]; Table 1, A549 cells, 72 hr with compound, MTS readout, read-out: IC50, nM A549): 133 nM |
| COc1c(C)c(OC)c2c(c1O)[C@@H]1[C@@H]3Cc4c(OC)c(C)c(OC)c(O)c4[C@H](CNC(=O)c4ccccc4F)N3[C@@H](C#N)[C@H](C2)N1C [drawing 136 R = F, 2-Fluorobenzamide derivative] | 2.5 | 37 |  |
| COc1c(C)c(OC)c2c(c1O)[C@@H]1[C@@H]3Cc4c(OC)c(C)c(OC)c(O)c4[C@H](CNC(=O)c4ccccc4)N3[C@@H](C#N)[C@H](C2)N1C [drawing 136 R = H, Benzamide derivative] | 4.1 | 91 |  |
| COc1c(C)c(OC)c2c(c1O)[C@@H]1[C@@H]3Cc4c(OC)c(C)c(OC)c(O)c4[C@H](CNC(=O)c4ccccc4-c4ccccc4)N3[C@@H](C#N)[C@H](C2)N1C [drawing 136 R = Phenyl, Biphenyl-2-carboxylic acid amide derivative] | 34 | 330 |  |
| COc1c(C)c(OC)c2c(c1O)[C@@H]1[C@@H]3Cc4c(OC)c(C)c(OC)c(O)c4[C@H](CNC(=O)c4ccc5ccccc5n4)N3[C@@H](C#N)[C@H](C2)N1C [drawing 160 R = H (11), Quinoline-2-carboxylic acid amide derivative] | 1.3 | 4.4 |  |
| COc1c(C)c(OC)c2c(c1O)[C@@H]1[C@@H]3Cc4c(OC)c(C)c(OC)c(O)c4[C@H](CNC(=O)c4ccc5cc(Cl)ccc5n4)N3[C@@H](C#N)[C@H](C2)N1C [drawing 162 R = Cl (14), 6-Chloroquinoline-2-carboxylic acid amide derivative] | 1.5 | 4.1 |  |
| COc1c(C)c(OC)c2c(c1O)[C@@H]1[C@@H]3Cc4c(OC)c(C)c(OC)c(O)c4[C@H](CNC(=O)c4ccc5ccccc5n4)N3C[C@H](C2)N1C [drawing 172 X = H, Reduced quinalascidin analog] |  |  | IC50 [1, 9]: > 9000 nM; IC50 [2, 10]: > 9000 nM |
| COc1c(C)c(OC)c2c(c1O)[C@@H]1[C@@H]3Cc4c(OC)c(C)c(OC)c(O)c4[C@H](CNC(=O)c4ccc5ccccc5n4)N3[C@@H](OC)[C@H](C2)N1C [drawing 172 X = OCH3, Methoxy derivative] |  |  | IC50 [1, 9]: 120 nM; IC50 [2, 10]: 1100 nM |
| COc1c(C)c(OC)c2c(c1O)[C@@H]1[C@@H]3Cc4c(OC)c(C)c(OC)c(O)c4[C@H](CNC(=O)c4ccc5ccccc5n4)N3[C@@H](O)[C@H](C2)N1C [drawing 172 X = OH, Hemiaminal derivative] |  |  | IC50 [1, 9]: 0.9 nM; IC50 [2, 10]: 13 nM |
